The results in this text go back to patent EP0091090A2, “Bipyridine substituted imidazolidene copper complex and its use in food-producing animals, and bipyridine, 2,2'-(2-imidazolidinylidene) di-copper complex and use in animals” (INTERNATIONAL MINERALS & CHEMICAL CORPORATION, priority 1982, dated 1983).

The experiment in a line: Methane production in growing lambs, respiration calorimetry (Example 4). Particulars: 75 ppm in diet, 3 days treated feed, versus negative control. The class given is in vivo. From the text: Animal Test: The object of this test is to determine the effect of the test compound on methane production in growing animals (ruminants). A decrease in methane production is an indication of increased utilization of the animals' feed supply, and possibly an indication of the effectiveness of the compound as a growth promoter.
Test Procedure: The test animals are housed in special respiration calorimetry facilities during the tests so that all metabolic gases can be collected and measured.
Twelve wether lambs, weighing between 20 and 25 kg, were selected from a group of lambs purchased from the California Livestock Marketing Association. The animals were processed according to standard procedures after arrival, and they were ear tagged for identification purposes and weighed prior to being moved to the respiration calorimetry facility.
Experimental Design - The animals were fed 500 grams of a 30% concentrate diet (Table 4) twice daily.
The Formula IV compound was tested in three animals at a level of 75 ppm. The test period was one week. […] Methane production was monitored during this time. […]
Sample Collection and Analysis - Since only the gas data on methane was of interest, urine and feces were collected daily and discarded. […] These samples were analyzed by gas chromatography to get a qualitative measure of […] production. […]

On to “2,2'-(4,5-diphenyl-2H-imidazol-2-ylidene)bispyridine with CuCl2(1/1) [Formula IV Compound]”, for which the methane production entry was “significant decrease”.
